Source: US9855270B2, “Methods and compositions for modulating estrogen receptor mutants” (priority 2014, dated 2018)
Read-outs that look alike come from different tables or passages of the source.

Legend:
Experiment in all cases: cells
Type in all cases: cell-based
Design in all cases: Percent inhibition compared to vehicle: concentration or dose not given beside the values
[1] = system: MCF-7 cells stably expressing EF1 HA-ER-α L536P; conditions: EF1 HA-ER-α L536P; for Percent inhibition compared to vehicle: 5-Day Incubation; for Efficacy (Emax): Day 5 relative to Day 0; for EC50: read-out: Potency (EC50; nM)
Description: (§1) MCF-7 Mutant ER-α Stable Cell Line Generation: MCF-7 cells stably expressing wild-type or ER-α mutants were generated by subcloning ESR1 wild-type and mutant cDNAs containing an amino terminal hemagglutinin tag into pCDH-EF1-MCS-(PGK-Puro) (referred to as EF1 HA-ER-α) and pCDH-UbC-MCS-EF1-Hygro (referred to as UbC HA-ER-α) (System Biosciences). The resulting plasmids, in addition to an empty vector negative control, were subsequently cotransfected into HEK293T cells with the pPACKH1 packaging plasmid mix (System Biosciences) according to the manufacturer's protocol. Four days post transfection lentiviral particles were purified from the cell medium, tiered and stored at −80° C. MCF-7 cells were transduced with the purified viral particles and stable cell lines were selected by growth in RPMI containing 10% FBS plus 1 μG/mL puromycin or 200 μG/mL hygromycin for pCDH-EF1-MCS-(PGK-Puro) and pCDH-UbC-MCS-EF1-Hygro, respectively.
(§2) MCF-7 Stable Cell Line Viability: MCF-7 cells were enumerated with a hemacytometer adjusted to a concentration of 40,000 cells per mL in Phenol Free RPMI containing 10% CSS with NEAA and Sodium Pyruvate. 16 microliters of the cell suspension was added to each well of a 384 well tissue culture treated white clear bottom polystyrene plate (Corning) using a Matrix 16 channel electronic pipette. The cells were incubated overnight to allow the cells to adhere. The following day, 16 microliters of Phenol Free RPMI containing 10% CSS with NEAA and Sodium Pyruvate was added to the wells of one plate, followed by 16 μL of CellTiter-Glo (Promega, Madison Wis.) luminescent cell viability reagent using a Matrix 16 channel electronic pipette. […] The “average” of the relative luminescence units (RLUs) of the wells are considered to be the baseline value at time=zero. In addition, a 10 point, 1:5 serial dilution in DMSO (Sigma-Aldrich) was performed using Matrix 12 channel electronic pipette, including DMSO only as […]. 4 μL of each dilution was then added to 196 μL of RPMI containing 10% CSS with NEAA and Sodium Pyruvate. 16 μL of medium containing compound was added to the cells at a final concentration ranging from 10 μM to 5 pM. Compound dilution in media and subsequent addition to cells were carried out using Matrix 12 channel electronic pipettes. After 5 day compound exposure, 16 μL of CellTiter-Glo (Promega, Madison Wis.) luminescent cell viability reagent was added to the cells using a Matrix 16 channel electronic pipette. CellTiter-Glo added to 32 μL of medium without cells was used to obtain a background value. […] The relative luminescence units (RLUs) of each well were measured, and relative proliferation (fold) of each sample was determined as follows: (RLU sample−RLU background)/(RLU at T=0)=relative proliferation
(§3) The UbC promoter is reported by the manufacturer (System Biosciences) to express low to moderate RNA levels while the EF1 promoter expresses high levels (System Biosciences).

[2] = system: MCF-7 cells stably expressing UbC HA-ER-α Y537N; conditions: UbC HA-ER-α Y537N; for Percent inhibition compared to vehicle: 5-Day Incubation; for Efficacy (Emax): Day 5 relative to Day 0
Description: as §1, §2, §3

[3] = system: MCF-7 cells stably expressing UbC HA-ER-α L536P
Description: as §1, §2, §3

[4] = system: MCF-7 cells stably expressing EF1 HA-ER-α L536R; conditions: EF1 HA-ER-α L536R; for Percent inhibition compared to vehicle: 5-Day Incubation; for Efficacy (Emax): Day 5 relative to Day 0; for EC50: read-out: Potency (EC50; nM)
Description: as §1, §2, §3

[5] = system: MCF-7 cells stably expressing EF1 HA-ER-α Y537N; conditions: EF1 HA-ER-α Y537N; for Percent inhibition compared to vehicle: 5-Day Incubation; for Efficacy (Emax): Day 5 relative to Day 0; for EC50: read-out: Potency (EC50; nM)
Description: as §1, §2, §3

[6] = system: MCF-7 cells stably expressing EF1 HA-ER-α E380Q; conditions: EF1 HA-ER-α E380Q; for Percent inhibition compared to vehicle: 5-Day Incubation; for Efficacy (Emax): Day 5 relative to Day 0; for EC50: read-out: Potency (EC50; nM)
Description: as §1, §2, §3

[7] = system: MCF-7 cells stably expressing UbC HA-ER-α L536R; conditions: UbC HA-ER-α L536R; for Efficacy (Emax): Day 5 relative to Day 0
Description: as §1, §2, §3

[8] = system: MCF-7 cells stably expressing UbC HA-ER-α E380Q; conditions: UbC HA-ER-α E380Q; for Percent inhibition compared to vehicle: 5-Day Incubation; for Efficacy (Emax): Day 5 relative to Day 0
Description: as §1, §2, §3

[9] = Antagonist Mode, −E2 (Table 27)
[10] = Agonist Mode, −E2, read-out: Potency (EC50; nM)
[11] = Antagonist Mode, +E2, read-out: Potency (EC50; nM)
[12] = Agonist Mode, −E2, Day 5 relative to Day 0
[13] = Antagonist Mode, +E2, 5-Day Incubation
[14] = Antagonist Mode, +E2, Day 5 relative to Day 0
[15] = Homo sapiens, MCF7, read-out: Potency (EC50; nM), Agonist Mode, −E2

CCC(=C(c1ccc(O)cc1)c1ccc(OCCN(C)C)cc1)c1ccccc1 [4-Hydroxytamoxifen]
Percent inhibition compared to vehicle ([1]; Agonist Mode, −E2): 58%
Efficacy (Emax) ([1]; Agonist Mode, −E2): 3.47 ± 0.03
EC50 ([1]; Agonist Mode, −E2): 4.39 ± 0.723 nM
Percent inhibition compared to vehicle ([1]; Antagonist Mode, +E2): 60%
Efficacy (Emax) ([1]; Antagonist Mode, +E2): 3.64 ± 0.26
EC50 ([1]; Antagonist Mode, +E2): 9.22 ± 0.546 nM
EC50 [1, 9]: 4.39 ± 0.723 nM
Percent inhibition compared to vehicle ([2]; Agonist Mode, −E2): 46%
Efficacy (Emax) ([2]; Agonist Mode, −E2): 2.34 ± 0.29
EC50 [2, 10]: 1.58 ± 0.955 nM
Percent inhibition compared to vehicle ([2]; Antagonist Mode, +E2): 65%
Efficacy (Emax) ([2]; Antagonist Mode, +E2): 2.27 ± 0.07
EC50 [2, 11]: 5.03 ± 0.765 nM
Percent inhibition compared to vehicle ([3]; Agonist Mode, −E2, 5-Day Incubation): 35%
Efficacy (Emax) [3, 12]: 2.06 ± 0.19
EC50 [3, 10]: 0.821 ± 0.726 nM
Percent inhibition compared to vehicle [3, 13]: 61%
Efficacy (Emax) [3, 14]: 2.31 ± 0.27
EC50 [3, 11]: 2.13 ± 4.68 nM
Percent inhibition compared to vehicle ([4]; Agonist Mode, −E2): 43%
Efficacy (Emax) ([4]; Agonist Mode, −E2): 3.91 ± 0.04
EC50 ([4]; Agonist Mode, −E2): 7.14 ± 6.64 nM
Percent inhibition compared to vehicle ([4]; Antagonist Mode, +E2): 47%
Efficacy (Emax) ([4]; Antagonist Mode, +E2): 3.65 ± 0.29
EC50 ([4]; Antagonist Mode, +E2): 19 ± 18.2 nM
EC50 [4, 9]: 7.14 ± 6.64 nM
Percent inhibition compared to vehicle ([5]; Agonist Mode, −E2): 60%
Efficacy (Emax) ([5]; Agonist Mode, −E2): 2.43 ± 0.13
EC50 ([5]; Agonist Mode, −E2): 6.04 ± 1.36 nM
Percent inhibition compared to vehicle ([5]; Antagonist Mode, +E2): 57%
Efficacy (Emax) ([5]; Antagonist Mode, +E2): 2.39 ± 0.24
EC50 ([5]; Antagonist Mode, +E2): 5.25 ± 2.84 nM
EC50 [5, 9]: 6.04 ± 1.36 nM
Percent inhibition compared to vehicle ([6]; Agonist Mode, −E2): 21%
Efficacy (Emax) ([6]; Agonist Mode, −E2): 5.17 ± 0.26
EC50 ([6]; Agonist Mode, −E2): 26 ± 9.12 nM
Percent inhibition compared to vehicle ([6]; Antagonist Mode, +E2): 19%
Efficacy (Emax) ([6]; Antagonist Mode, +E2): 5.03 ± 0.85
EC50 ([6]; Antagonist Mode, +E2): 65.4 ± 24.4 nM
EC50 [6, 9]: 26 ± 9.12 nM
Efficacy (Emax) ([7]; Agonist Mode, −E2): 2.26 ± 0.36
EC50 [7, 10]: 1.06 ± 0.714 nM
Percent inhibition compared to vehicle [7, 13]: 61%
Efficacy (Emax) ([7]; Antagonist Mode, +E2): 2.34 ± 0.18
EC50 [7, 11]: 6.09 ± 4.42 nM
Percent inhibition compared to vehicle ([8]; Agonist Mode, −E2): 44%
EC50 [8, 10]: 1.59 ± 0.681 nM
Percent inhibition compared to vehicle ([8]; Antagonist Mode, +E2): 66%
EC50 [8, 11]: 4.92 ± 0.671 nM

C[C@]12CC[C@@H]3c4ccc(O)cc4CC[C@H]3[C@@H]1CC[C@@H]2O [17β-Estradiol]
Efficacy (Emax) ([1]; Agonist Mode, −E2): 8.49 ± 0.94
Efficacy (Emax) ([1]; Antagonist Mode, +E2): 9.07 ± 0.12
EC50 [2, 15]: 0.126 ± 0.233 nM
Efficacy (Emax) ([2]; Antagonist Mode, +E2): 6.49 ± 0.97
Efficacy (Emax) [3, 12]: 5.06 ± 0.76
Efficacy (Emax) [3, 14]: 5.66 ± 0.52
EC50 [3, 15]: 0.212 ± 0.401 nM
Efficacy (Emax) ([4]; Agonist Mode, −E2): 6.93 ± 1.50
Efficacy (Emax) ([4]; Antagonist Mode, +E2): 6.83 ± 1.36
Efficacy (Emax) ([5]; Agonist Mode, −E2): 5.52 ± 0.43
Efficacy (Emax) ([6]; Antagonist Mode, +E2): 5.75 ± 0.17
EC50 [7, 15]: 0.008 ± 0.006 nM
Efficacy (Emax) ([7]; Agonist Mode, −E2): 5.72 ± 0.74
Efficacy (Emax) ([7]; Antagonist Mode, +E2): 5.92 ± 0.67
EC50 [8, 15]: 0.013 ± 0.011 nM
Efficacy (Emax) ([8]; Agonist Mode, −E2): 7.36 ± 1.07
Efficacy (Emax) ([8]; Antagonist Mode, +E2): 7.69 ± 1.94
